Target: Delta-5-Desaturase (D5D) (Homo sapiens (Human), UniProt O60427)
Assay: In vitro measurement of Delta-5-Desaturase inhibitory activity using DGLA-CoA and Arachidonyl-CoA mass spectrometric assays
Assay type: biochemical
Settings: membrane preparations of D5D-overexpressing HEK293 6E cells; averaged over at least two independent runs
Summary of the method: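 DGLA-CoA and arachidonyl-CoA were read by RapidFire SPE triple-quad MS (negative mode, MRM) after a 1 h ambient-temperature reaction quenched with acetonitrile. Enzyme was D5D-overexpressing HEK293 6E membranes at 10 μg/mL final; substrate solution held 0.01 mM DGLA plus NADH, ATP and CoA. Inhibition was referenced to DMSO and no-enzyme wells; 4PL IC50.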

Delta-5-Desaturase (D5D), sequence (O60427 whole entry, species assumed): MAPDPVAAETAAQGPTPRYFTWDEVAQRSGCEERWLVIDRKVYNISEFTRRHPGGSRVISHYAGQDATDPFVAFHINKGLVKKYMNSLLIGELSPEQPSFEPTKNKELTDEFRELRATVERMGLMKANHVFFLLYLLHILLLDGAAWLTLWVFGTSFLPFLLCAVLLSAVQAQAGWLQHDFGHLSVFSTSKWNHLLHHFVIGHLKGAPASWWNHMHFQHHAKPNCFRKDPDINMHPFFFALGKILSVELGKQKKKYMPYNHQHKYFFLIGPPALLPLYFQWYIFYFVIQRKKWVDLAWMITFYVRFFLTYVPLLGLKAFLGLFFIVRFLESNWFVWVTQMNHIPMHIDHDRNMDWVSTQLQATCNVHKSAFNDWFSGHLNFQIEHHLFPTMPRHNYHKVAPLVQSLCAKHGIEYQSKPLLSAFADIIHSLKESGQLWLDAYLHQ

| IC50 [nM] | SMILES |
| --- | --- |
| 1520 | COCc1ccc2nc(C(F)(F)F)c(-c3cnn(CC(F)(F)C(F)(F)F)c3)c(=O)n2c1 [Example 39-24, 7-(methoxymethyl)-3-[1-(2,2,3,3,3-pentafluoropropyl)-1H-pyrazol-4-yl]-2-(trifluoromethyl)-4H-pyrido[1,2-a]pyrimidin-4-one] |
| 3.7 | O=c1c(-c2cnn(CC(F)(F)C(F)(F)F)c2)c(C(F)(F)F)nc2cnccn12 [Example 39-25, 3-[1-(2,2,3,3,3-pentafluoropropyl)-1H-pyrazol-4-yl]-2-(trifluoromethyl)-4H-pyrazino[1,2-a]pyrimidin-4-one] |
| > 67000 | O=c1c(-c2cnc(OCC(F)(F)F)nc2)c(C(F)(F)F)nc2ccc(F)cn12 [Example 39-26, 7-fluoro-3-[2-(2,2,2-trifluoroethoxy)pyrimidin-5-yl]-2-(trifluoromethyl)-4H-pyrido[1,2-a]pyrimidin-4-one] |
| 1.1 | O=c1c(-c2cnn(CCC(F)(F)F)c2)c(C(F)(F)F)nc2ccc(F)cn12 [Example 39-27, 7-fluoro-2-(trifluoromethyl)-3-[1-(3,3,3-trifluoropropyl)-1H-pyrazol-4-yl]-4H-pyrido[1,2-a]pyrimidin-4-one] |
| > 67000 | O=c1c(-c2cnn(CC(F)(F)C(F)(F)F)c2)c(C(F)(F)F)nc2ccc(N3CCC3)cn12 [Example 39-28, 7-(azetidin-1-yl)-3-[1-(2,2,3,3,3-pentafluoropropyl)-1H-pyrazol-4-yl]-2-(trifluoromethyl)-4H-pyrido[1,2-a]pyrimidin-4-one] |
| > 67000 | CN(C)Cc1ccc2nc(C(F)(F)F)c(-c3cnn(CC(F)(F)C(F)(F)F)c3)c(=O)n2c1 [Example 39-29, 7-[(dimethylamino)methyl]-3-[1-(2,2,3,3,3-pentafluoropropyl)-1H-pyrazol-4-yl]-2-(trifluoromethyl)-4H-pyrido[1,2-a]pyrimidin-4-one] |
| > 67000 | Cc1cn2c(=O)c(-c3cnc(OCC(F)(F)F)nc3)c(C(F)(F)F)nc2cn1 [Example 39-30, 7-methyl-3-[2-(2,2,2-trifluoroethoxy)pyrimidin-5-yl]-2-(trifluoromethyl)-4H-pyrazino[1,2-a]pyrimidin-4-one] |
| 28 | Cc1cn2c(=O)c(-c3cnn(CC(F)(F)C(F)(F)F)c3)c(C(F)(F)F)nc2cn1 [Example 39-31, 7-methyl-3-[1-(2,2,3,3,3-pentafluoropropyl)-1H-pyrazol-4-yl]-2-(trifluoromethyl)-4H-pyrazino[1,2-a]pyrimidin-4-one] |
| 154 | Cc1ccc2nc(C(F)(F)F)c(-c3cnn(CC(F)(F)C(F)(F)F)c3)c(=O)n2n1 [Example 39-32, 7-methyl-3-[1-(2,2,3,3,3-pentafluoropropyl)-1H-pyrazol-4-yl]-2-(trifluoromethyl)-4H-pyrimido[1,2-b]pyridazin-4-one] |
| 19.9 | Cc1ccc2nc(C(F)(F)F)c(-c3cnn(CCC(F)(F)F)c3)c(=O)n2n1 [Example 39-33, 7-methyl-2-(trifluoromethyl)-3-[1-(3,3,3-trifluoropropyl)-1H-pyrazol-4-yl]-4H-pyrimido[1,2-b]pyridazin-4-one] |
| 30.2 | O=c1c(-c2cnn(CC(F)(F)C(F)(F)F)c2)c(C(F)(F)F)nc2n1CCOC2 [Example 39-34, 3-[1-(2,2,3,3,3-pentafluoropropyl)-1H-pyrazol-4-yl]-2-(trifluoromethyl)-4H,6R,7H,9H-pyrimido[2,1-c][1,4]oxazin-4-one] |
| 13.4 | O=c1c(-c2cnn(CC(F)(F)C(F)(F)F)c2)c(C(F)(F)F)nc2cnc(Cl)cn12 [Example 39-35, 7-chloro-3-[1-(2,2,3,3,3-pentafluoropropyl)-1H-pyrazol-4-yl]-2-(trifluoromethyl)-4H-pyrazino[1,2-a]pyrimidin-4-one] |
| > 67000 | Cc1ccc2nc(C(F)(F)F)c(-c3cnc(OCC(F)(F)F)nc3)c(=O)n2n1 [Example 39-36, 7-methyl-3-[2-(2,2,2-trifluoroethoxy)pyrimidin-5-yl]-2-(trifluoromethyl)-4H-pyrimido[1,2-b]pyridazin-4-one] |
| 61 | COc1cn2c(=O)c(-c3cnn(CC(F)(F)C(F)(F)F)c3)c(C(F)(F)F)nc2cn1 [Example 39-37, 7-methoxy-3-[1-(2,2,3,3,3-pentafluoropropyl)-1H-pyrazol-4-yl]-2-(trifluoromethyl)-4H-pyrazino[1,2-a]pyrimidin-4-one] |
| 1070 | O=c1c(-c2cnn(CCC(F)(F)F)c2)c(C(F)(F)F)nc2n1CCOC2 [Example 39-38, 2-(trifluoromethyl)-3-[1-(3,3,3-trifluoropropyl)-1H-pyrazol-4-yl]-4H,6H,7H,9H-pyrimido[2,1-c][1,4]oxazin-4-one] |
| > 67000 | O=c1c(-c2cnc(OCC(F)(F)F)nc2)c(C(F)(F)F)nc2n1CCOC2 [Example 39-39, 3-[2-(2,2,2-trifluoroethoxy)pyrimidin-5-yl]-2-(trifluoromethyl)-4H,6H,7H,9H-pyrimido[2,1-c][1,4]oxazin-4-one] |
| 67 | Cc1cnn2c(=O)c(-c3cnn(CC(F)(F)C(F)(F)F)c3)c(C(F)(F)F)nc2c1 [Example 39-40, 8-methyl-3-[1-(2,2,3,3,3-pentafluoropropyl)-1H-pyrazol-4-yl]-2-(trifluoromethyl)-4H-pyrimido[1,2-b]pyridazin-4-one] |

| IC50 [nM] | SMILES |
| --- | --- |
| 65.1 | Cc1nccn2c(=O)c(-c3cnn(CC(F)(F)C(F)(F)F)c3)c(C(F)(F)F)nc12 [Example 39-41, 9-methyl-3-[1-(2,2,3,3,3-pentafluoropropyl)-1H-pyrazol-4-yl]-2-(trifluoromethyl)-4H-pyrazino[1,2-a]pyrimidin-4-one] |
| 179 | Cc1cn2c(=O)c(-c3cnn(CC(F)(F)C(F)(F)F)c3)c(C(F)(F)F)nc2c(C)n1 [Example 39-43, 7,9-dimethyl-3-[1-(2,2,3,3,3-pentafluoropropyl)-1H-pyrazol-4-yl]-2-(trifluoromethyl)-4H-pyrazino[1,2-a]pyrimidin-4-one] |
| 241 | Cc1cnn2c(=O)c(-c3cnn(CCC(F)(F)F)c3)c(C(F)(F)F)nc2c1 [Example 39-44, 8-methyl-2-(trifluoromethyl)-3-[1-(3,3,3-trifluoropropyl)-1H-pyrazol-4-yl]-4H-pyrimido[1,2-b)pyridazin-4-one] |
| 47.4 | COc1ccn2c(=O)c(-c3cnn(CC4CC4)c3)c(C(F)(F)F)nc2c1 [Example 39-45, 3-[1-(cyclopropylmethyl)-1H-pyrazol-4-yl]-8-methoxy-2-(trifluoromethyl)-4H-pyrido[1,2-a]pyrimidin-4-one] |
| 6770 | Cc1cc2nc(C(F)(F)F)c(-c3cnn(CC(F)(F)C(F)(F)F)c3)c(=O)n2nc1C [Example 39-46, 7,8-dimethyl-3-[1-(2,2,3,3,3-pentafluoropropyl)-1H-pyrazol-4-yl]-2-(trifluoromethyl)-4H-pyrimido[1,2-b]pyridazin-4-one] |
| 65.6 | Cc1cc2nc(C(F)(F)F)c(-c3cnn(CCC(F)(F)F)c3)c(=O)n2nc1C [Example 39-47, 7,8-dimethyl-2-(trifluoromethyl)-3-[1-(3,3,3-trifluoropropyl)-1H-pyrazol-4-yl]-4H-pyrimido[1,2-b]pyridazin-4-one] |
| 518 | Cc1cnn2c(=O)c(-c3cnc(OCC(F)(F)F)nc3)c(C(F)(F)F)nc2c1 [Example 39-48, 8-methyl-3-[2-(2,2,2-trifluoroethoxy)pyrimidin-5-yl]-2-(trifluoromethyl)-4H-pyrimido[1,2-b]pyridazin-4-one] |
| 4.6 | COc1ccn2c(=O)c(-c3cnn(CC4CC(F)(F)C4)c3)c(C(F)(F)F)nc2c1 [Example 39-49, 3-{1-[(3,3-difluorocyclobutyl)methyl]-1H-pyrazol-4-yl}-8-methoxy-2-(trifluoromethyl)-4H-pyrido[1,2-a]pyrimidin-4-one] |
| 105 | Cc1cnn2c(=O)c(-c3ccc(OCC(F)(F)F)cc3)c(C(F)(F)F)nc2c1 [Example 39-50, 8-methyl-3-[4-(2,2,2-trifluoroethoxy)phenyl]-2-(trifluoromethyl)-4H-pyrimido[1,2-b]pyridazin-4-one] |
| 74.3 | Cc1cnn2c(=O)c(-c3cnn(CC4CC4)c3)c(C(F)(F)F)nc2c1 [Example 39-51, 3-[1-(cyclopropylmethyl)-1H-pyrazol-4-yl]-8-methyl-2-(trifluoromethyl)-4H-pyrimido[1,2-b]pyridazin-4-one] |
| 420 | Cc1cnn2c(=O)c(-c3cnn(CC4CC(F)(F)C4)c3)c(C(F)(F)F)nc2c1 [Example 39-52, 3-{1-[(3,3-difluorocyclobutyl)methyl]-1H-pyrazol-4-yl)-8-methyl-2-(trifluoromethyl)-4H-pyrimido[1,2-b]pyridazin-4-one] |
| 369 | Cc1cnn2c(=O)c(-c3cnn(CC4CC4(F)F)c3)c(C(F)(F)F)nc2c1 (stereo not drawn) [Example 39-53, 3-{1-[(2,2-difluorocyclopropyl)methyl]-1H-pyrazol-4-yl}-8-methyl-2-(trifluoromethyl)-4H-pyrimido[1,2-b]pyridazin-4-one] |
| 207 | COc1ccn2c(=O)c(-c3cnn(CC4COC4)c3)c(C(F)(F)F)nc2c1 [Example 39-54, 8-methoxy-3-{1-[(oxetan-3-yl)methyl]-1H-pyrazol-4-yl}-2-(trifluoromethyl)-4H-pyrido[1,2-a]pyrimidin-4-one] |
| 748 | COc1cnn2c(=O)c(-c3cnn(CC4CC(F)(F)C4)c3)c(C(F)(F)F)nc2c1 [Example 39-55, 3-{1-[(3,3-difluorocyclobutyl)methyl)-1H-pyrazol-4-yl}-8-methoxy-2-(trifluoromethyl)-4H-pyrimido[1,2-b]pyridazin-4-one] |
| 19.1 | Cc1cc2nc(C(F)(F)F)c(-c3cnn(CC(F)(F)C(F)(F)F)c3)c(=O)n2cc1F [Example 39-56, 7-fluoro-8-methyl-3-[1-(2,2,3,3,3-pentafluoropropyl)-1H-pyrazol-4-yl]-2-(trifluoromethyl)-4H-pyrido[1,2-a]pyrimidin-4-one] |
| 4.1 | COc1cc2nc(C(F)(F)F)c(-c3ccc(OCC(F)(F)F)cc3)c(=O)n2cc1F [Example 39-57, 7-fluoro-8-methoxy-3-[4-(2,2,2-trifluoroethoxy)phenyl]-2-(trifluoromethyl)-4H-pyrido[1,2-a]pyrimidin-4-one] |
